SMILES strings stand for the structures.

The subject of this assay is adalimumab producing cell line 2. The assay can be described thus: Extracellular MGO measurement in cell culture supernatant, cell line 2. Format: cell-based. To be noted: Example 4; for MGO concentration level: 0.15 g/l 2DDG. Here is the method:
About 20 ml of cell free supernatant were collected in some cases for measurement of extracellular MGO in the supernatant. For this, a 3,000 RPM 30 min centrifugation was performed to remove the cells.
Remove protein: After quick thawing covered with aluminum, cell culture samples (10 mL) were filtrated by a 3 kDa or 10 kDa membrane filter (Millipore, UFC900369) until the solution left inside the filter was around 1 mL, the flow through that was used for MGO analysis.
Derivative MGO: 750 uL of flow through, 75 uL of 1 M NaH2PO4 buffer (pH 8), 50 mM 1,2 diaminobenzene (Aldrich P/N: P23938), and 600 uL of MilliQ water were mixed well and incubated at 60° C. for 3 hours. After cooling down and centrifuging at 10000 rpm for 3 minutes, the sample solution was ready to be injected.
External Standards to Quantitate MGO: external standards were used to quantitate MGO in cell culture. Based on the following table, the standard solutions were prepared. The standard solutions were incubated at 60° C. for 3 hours. After cooling down, the standard solutions were analyzed to get an external standard curve. The concentration of MGO in culture was calculated based on the external standard curve. (MGO: CMP Biomedicals, P/N: 155558; GO: Fisher Scientifics, P/N: S25698). 10 mM and 1 mM MGO were diluted from the MGO and 1000 uM and 10 uM GO were diluted from the GO. The diluent was water.
HPLC Method: A reverse phase HPLC method was used for MGO analysis. The parameters are listed in the method information table and gradient table below.
The measured concentration based on external quantitation multiplied by two is the final MGO concentration.
The objective of this experiment was to further evaluate the control of MGO synthesis/MGO protein modification through reduced glucose consumption in a different cell line, Cell line 2. There were two parts to this experiment. In one part, different levels of 2DDG were supplemented (0.05 g/l, 0.15 g/l) similar to the experimental design in Example 2. Prior to this experiment, a study was performed in shake flask culture to evaluate the dose effect of 2DDG on this cell line (data not shown). In the other part, different glucose profiles were maintained in the culture through the feedback control of glucose feed amounts. […] As described in Example 3, extracellular MGO quantification was performed for day 7, 8 and 9 for the samples below and percentage of acidic species were quantified using WCX-10 analysis post protein A of cell culture harvests.
The cells were grown to maximum viable cell densities (VCD) in the range of 10-12×10^6 cells/ml for the different conditions tested. […] Samples were then subsequently analyzed using Lys-C peptide mapping for quantification of MGO modification post protein A purification. […]

For `O=CC[C@@H](O)[C@H](O)[C@H](O)CO` [Test 2DDG, 2-Deoxy-D-Glucose], the MGO concentration profile entry (0.05 g/l 2DDG, versus control) was “No significant difference”. Also, the MGO concentration level (day 7, control 28 μM) amounted to 14 µM; the MGO concentration level (day 8, control 64 μM) came out at 16 µM; the MGO concentration level (day not printed (third value, after day 7 and day 8), control 157 μM (day 9)) was 20 µM.
